Structures are written as SMILES. Calls of active or inactive are those of the source. The rule behind the calls is not given here.

The data set relates to CCRIS mutagenicity, Ames/micronucleus/aberration tests. The data set can be described thus: CCRIS mutagenicity studies.
Setting [1] is: Test System: AMES SALMONELLA TYPHIMURIUM, Strain/Indicator: TA98, Metabolic Activation: NONE, Method: STANDARD PLATE.
Where [2] appears, read: Test System: AMES SALMONELLA TYPHIMURIUM, Strain/Indicator: TA100, Metabolic Activation: NONE, Method: STANDARD PLATE.
Where [3] appears, read: Test System: AMES SALMONELLA TYPHIMURIUM, Strain/Indicator: TA1535, Metabolic Activation: NONE, Method: STANDARD PLATE.
[4] abbreviates: Test System: AMES SALMONELLA TYPHIMURIUM, Strain/Indicator: TA1538, Metabolic Activation: NONE, Method: STANDARD PLATE.
[5] abbreviates: Test System: AMES SALMONELLA TYPHIMURIUM, Strain/Indicator: TA102, Metabolic Activation: NONE, Method: STANDARD PLATE.
Where [6] appears, read: Test System: AMES SALMONELLA TYPHIMURIUM, Strain/Indicator: TA102, Metabolic Activation: RAT, LIVER, S-9, AROCLOR 1254, Method: STANDARD PLATE.
Setting [7] is: Test System: UDS RODENT HEPATOCYTES, Strain/Indicator: THY INCORP (NON-S-PHASE), Metabolic Activation: NONE, Method: AUTORADIOGRAPHY
Setting [8] is: Test System: AMES SALMONELLA TYPHIMURIUM, Strain/Indicator: TA100, Metabolic Activation: RAT, LIVER, S-9, AROCLOR 1254, Method: STANDARD PLATE.
Setting [9] is: Test System: AMES SALMONELLA TYPHIMURIUM, Strain/Indicator: TA1535, Metabolic Activation: RAT, LIVER, S-9, AROCLOR 1254, Method: STANDARD PLATE.
Setting [10] is: Test System: AMES SALMONELLA TYPHIMURIUM, Strain/Indicator: TA1537, Metabolic Activation: NONE, Method: STANDARD PLATE.

As to `C=CCCCCCCCCC`, the mutagenic call (Test System: AMES SALMONELLA TYPHIMURIUM, Strain/Indicator: TA98, Metabolic Activation: MOUSE, LIVER, S-9, Method: STANDARD PLATE) is “inactive; negative”; the mutagenic call under setting [1] is “inactive; negative”; the mutagenic call (Test System: AMES SALMONELLA TYPHIMURIUM, Strain/Indicator: TA100, Metabolic Activation: MOUSE, LIVER, S-9, Method: STANDARD PLATE) is “inactive; negative”; the mutagenic call under setting [2] was “inactive; negative”; the mutagenic call under setting [3] is “inactive; negative”; the mutagenic call under setting [4] was “inactive; negative”.
Turning to `C[C@@]1(CO)[C@H](O)CC[C@@]2(C)[C@H]1CC[C@H]1C[C@@H]3C[C@@]12CC[C@]3(O)CO`, the mutagenic call by setting is: (End Point: In vitro chromosomal aberrations, Test System: Human (male) peripheral blood lymphocytes, Metabolic Activation: None) “active; positive”; (End Point: In vitro micronucleus, Test System: Human (male) peripheral blood lymphocytes, Metabolic Activation: None) “active; positive; increased trend in all groups; effect depended on age and genetic stat”; under setting [5], “inactive; negative”; under setting [6], “inactive; negative”; (Test System: MOUSE LYMPHOMA, Strain/Indicator: L5178Y (TK+/TK-), Metabolic Activation: NONE, Method: SUSPENSION/PLATE) “active; positive”; under setting [7], “inactive; negative”.
`CC(=O)N=C1C=CC(=O)C=C1`: the mutagenic call by setting is: (Test System: AMES SALMONELLA TYPHIMURIUM, Strain/Indicator: TA98, Metabolic Activation: NONE, Method: PREINCUBATION) “inactive; negative”; (Test System: AMES SALMONELLA TYPHIMURIUM, Strain/Indicator: TA102, Metabolic Activation: NONE, Method: PREINCUBATION) “inactive; negative”; (Test System: UDS MOUSE HEPATOCYTES, Strain/Indicator: THY INCORP (NON-S-PHASE), Metabolic Activation: NONE, Method: LIQUID SCINTILLATION COUNTING) “inactive; negative”.
`O=C1c2cccc(O)c2C(=O)c2c(O)cc(CO)cc21`: the mutagenic call is “active; positive” (Test System: AMES SALMONELLA TYPHIMURIUM, Strain/Indicator: TA97A, Metabolic Activation: NONE, Method: STANDARD PLATE); “active; positive” (Test System: AMES SALMONELLA TYPHIMURIUM, Strain/Indicator: TA97A, Metabolic Activation: RAT, LIVER, S-9, AROCLOR 1254, Method: STANDARD PLATE); “active; positive” under setting [1]; “inactive; negative” (Test System: AMES SALMONELLA TYPHIMURIUM, Strain/Indicator: TA98, Metabolic Activation: RAT, LIVER, S-9, PCB, Method: PREINCUBATION); “active; positive” (Test System: AMES SALMONELLA TYPHIMURIUM, Strain/Indicator: TA98, Metabolic Activation: RAT, LIVER, S-9, Method: PREINCUBATION); “inactive; negative” (Test System: AMES SALMONELLA TYPHIMURIUM, Strain/Indicator: TA100, Metabolic Activation: NONE, Method: PREINCUBATION). In addition, the mutagenic call was “inactive; negative” under setting [2]; “inactive; negative” under setting [8]; “active; positive” (Test System: AMES SALMONELLA TYPHIMURIUM, Strain/Indicator: TA100, Metabolic Activation: RAT, LIVER, S-9, PCB, Method: PREINCUBATION); “inactive; negative” under setting [5]; “active; positive” under setting [6]; “active; positive” (Test System: AMES SALMONELLA TYPHIMURIUM, Strain/Indicator: TA102, Metabolic Activation: RAT, LIVER, S-9, Method: PREINCUBATION). Besides, the mutagenic call reads like this: under setting [3], “inactive; negative”; under setting [9], “inactive; negative”; (Test System: AMES SALMONELLA TYPHIMURIUM, Strain/Indicator: TA1537, Metabolic Activation: NONE, Method: PREINCUBATION) “active; positive”; under setting [10], “active; positive”; (Test System: AMES SALMONELLA TYPHIMURIUM, Strain/Indicator: TA1537, Metabolic Activation: RAT, LIVER, S-9, Method: PREINCUBATION) “active; positive”; (Test System: AMES SALMONELLA TYPHIMURIUM, Strain/Indicator: TA1538, Metabolic Activation: NONE, Method: PREINCUBATION) “active; positive”. The mutagenic call is “active; positive” under setting [4]; “active; positive” (Test System: AMES SALMONELLA TYPHIMURIUM, Strain/Indicator: TA1538, Metabolic Activation: RAT, LIVER, S-9, AROCLOR 1254, Method: STANDARD PLATE); “active; positive” (Test System: AMES SALMONELLA TYPHIMURIUM, Strain/Indicator: TA1538, Metabolic Activation: RAT, LIVER, S-9, Method: PREINCUBATION); “active; positive” (Test System: AMES SALMONELLA TYPHIMURIUM, Strain/Indicator: TA1978, Metabolic Activation: NONE, Method: PREINCUBATION); “inactive; negative” (Test System: AMES SALMONELLA TYPHIMURIUM, Strain/Indicator: TA1978, Metabolic Activation: RAT, LIVER, S-9, Method: PREINCUBATION); “inactive; negative” (Test System: CHINESE HAMSTER V-79, Strain/Indicator: V-79 (HGPRT)/6-THIOGUANINE, Metabolic Activation: NONE). In addition, the mutagenic call was “inactive; negative” (Test System: CHINESE HAMSTER V-79, Strain/Indicator: V-79 (HPRT)/6-THIOGUANINE, Metabolic Activation: NONE); “inactive; negative” (Test System: CHINESE HAMSTER V-79, Strain/Indicator: V-79 (HPRT)/6-THIOGUANINE, Metabolic Activation: RAT, LIVER, S-9, AROCLOR 1254); “active; positive” (Test System: CHINESE HAMSTER V-79, Strain/Indicator: V-79/8-AZAGUANINE, Metabolic Activation: NONE, Method: STANDARD PLATE); “inactive; negative” (Test System: UDS RAT HEPATOCYTES, Strain/Indicator: THY INCORP, Metabolic Activation: NONE, Method: AUTORADIOGRAPHY); “inactive; negative” (Test System: UDS RAT HEPATOCYTES, Strain/Indicator: THY INCORP, Metabolic Activation: NONE, Method: IN VIVO-IN VITRO); “active; positive” under setting [7].
Take `CC(C)CC(=O)OCc1cocc2c(C=O)ccc1-2`: the mutagenic call under setting [1] was “active; positive”; the mutagenic call (Test System: AMES SALMONELLA TYPHIMURIUM, Strain/Indicator: TA98, Metabolic Activation: RAT, LIVER, S-9, AROCLOR 1254, Method: STANDARD PLATE) was “active; positive”; the mutagenic call under setting [2] was “active; positive”; the mutagenic call under setting [8] is “active; positive”; the mutagenic call under setting [3] was “inactive; negative”; the mutagenic call under setting [9] was “inactive; negative”. The mutagenic call runs as follows: under setting [10], “inactive; negative”; (Test System: AMES SALMONELLA TYPHIMURIUM, Strain/Indicator: TA1537, Metabolic Activation: RAT, LIVER, S-9, AROCLOR 1254, Method: STANDARD PLATE) “inactive; negative”.
For `O=[N+]([O-])c1ccc2ccc3c([N+](=O)[O-])cccc3c2c1`, the mutagenic call reads like this: (Test System: AMES SALMONELLA TYPHIMURIUM, Strain/Indicator: TA98(1,8-DNP6), Metabolic Activation: NONE, Method: STANDARD PLATE) “active; positive”; (Test System: AMES SALMONELLA TYPHIMURIUM, Strain/Indicator: TA98(NR), Metabolic Activation: NONE, Method: STANDARD PLATE) “active; positive”; under setting [1], “active; positive”; under setting [2], “active; positive”; (Test System: AMES SALMONELLA TYPHIMURIUM, Strain/Indicator: YG1021, Metabolic Activation: NONE, Method: STANDARD PLATE) “active; positive”; (Test System: AMES SALMONELLA TYPHIMURIUM, Strain/Indicator: YG1024, Metabolic Activation: NONE, Method: STANDARD PLATE) “active; positive”. Further, the mutagenic call by setting is: (Test System: AMES SALMONELLA TYPHIMURIUM, Strain/Indicator: YG1026, Metabolic Activation: NONE, Method: STANDARD PLATE) “active; positive”; (Test System: AMES SALMONELLA TYPHIMURIUM, Strain/Indicator: YG1029, Metabolic Activation: NONE, Method: STANDARD PLATE) “active; positive”.
On to `CCN(C=O)N=O`, for which the mutagenic call runs as follows: under setting [3], “active; positive”; (Test System: E. COLI, Strain/Indicator: WU3610, Metabolic Activation: NONE, Method: SUSPENSION/PLATE) “active; positive”.

The record behind these values is PubChem BioAssay AID1259407 (Chemical Carcinogenesis Research Information System (CCRIS), 2018).
